Measurements from ChEMBL document CHEMBL4765470 (J Med Chem, 2021).
Starred links: 1 amine or outer side, 2 acyl side, 3 side chain; linkers in the order of their positions; H or OH if unused. Non-standard residues stand in square brackets, D forms with d. Residues, ends and D or L forms follow the SMILES beside them. *: point of attachment. X1 = O=C([C@]1(Cc2ccccc2)CCCN1[*:1])[*:2]; 1Nal = N[C@@H](Cc1cccc2ccccc12)C(=O)O; 2Thi = N[C@@H](Cc1cccs1)C(=O)O; Cha = N[C@@H](CC1CCCCC1)C(=O)O; Nle = CCCC[C@H](N)C(=O)O; Aze = O=C(O)[C@@H]1CCN1; Aib = CC(C)(N)C(=O)O; Bn = c1ccc(C*)cc1

Each compound was assayed against T1, Apelin receptor (Homo sapiens, UniProt P35414) (assay: Displacement of [125I] [NIe75, Tyr77]Pyr-apelin-13 from YFP-tagged human APJ receptor expressed in HEK293 cell membranes incubated for 1 hr by gamma counting based Cheng-Prusoff equation analysis).
T1 sequence (P35414 whole entry): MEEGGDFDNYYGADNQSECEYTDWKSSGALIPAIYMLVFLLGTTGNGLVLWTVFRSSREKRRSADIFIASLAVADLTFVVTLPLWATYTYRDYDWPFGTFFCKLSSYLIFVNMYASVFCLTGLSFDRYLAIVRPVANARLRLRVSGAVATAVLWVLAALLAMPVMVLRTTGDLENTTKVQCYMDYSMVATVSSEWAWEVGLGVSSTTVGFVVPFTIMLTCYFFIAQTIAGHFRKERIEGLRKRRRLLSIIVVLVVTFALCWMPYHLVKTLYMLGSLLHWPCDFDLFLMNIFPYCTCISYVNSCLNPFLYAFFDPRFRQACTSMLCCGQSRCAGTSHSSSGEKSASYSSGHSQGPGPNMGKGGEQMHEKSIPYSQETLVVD

SMILES | Ki
CCCC[C@H](N)C(=O)N1CCC[C@H]1C(=O)N[C@@H](CC(C)C)C(=O)N[C@@H](Cc1cnc[nH]1)C(=O)N[C@@H](CO)C(=O)N[C@@H](CCCNC(=N)N)C(=O)N[C@H](C(=O)N1CC[C@H]1C(=O)N[C@@H](Cc1ccccc1)C(=O)O)C(C)C (H-[Nle]PLHSRV[Aze]F-OH) | 159 nM
CCCC[C@H](N)C(=O)N1CCC[C@H]1C(=O)N[C@@H](CC(C)C)C(=O)N[C@@H](Cc1cnc[nH]1)C(=O)N[C@@H](CO)C(=O)N[C@@H](CCCNC(=N)N)C(=O)N[C@H](C(=O)N1CCC[C@H]1C(=O)N[C@@H](Cc1ccccc1)C(=O)O)C(C)C (H-[Nle]PLHSRVPF-OH) | 128 nM
CCCC[C@H](N)C(=O)N1CCC[C@H]1C(=O)N[C@@H](CC(C)C)C(=O)N[C@@H](Cc1cnc[nH]1)C(=O)N[C@@H](CO)C(=O)N[C@@H](CCCNC(=N)N)C(=O)N[C@H](C(=O)N1CCC[C@H]1C(=O)N[C@@H](Cc1cccc2ccccc12)C(=O)O)C(C)C (H-[Nle]PLHSRVP[1Nal]-OH) | 94 nM
CCCC[C@H](N)C(=O)N1CCC[C@H]1C(=O)N[C@@H](CC(C)C)C(=O)N[C@@H](Cc1cnc[nH]1)C(=O)N[C@@H](CO)C(=O)N[C@@H](CCCNC(=N)N)C(=O)N[C@@H](CC(C)C)C(=O)N1CCC[C@H]1C(=O)N[C@@H](Cc1ccccc1)C(=O)N1CCC[C@H]1C(=O)O (H-[Nle]PLHSRLPFP-OH) | 45 nM
CCCC[C@H](N)C(=O)N1CCC[C@H]1C(=O)N[C@@H](CC(C)C)C(=O)N[C@@H](Cc1cccs1)C(=O)N[C@@H](CO)C(=O)N[C@@H](CCCNC(=N)N)C(=O)N[C@H](C(=O)N1CCC[C@H]1C(=O)N[C@@H](Cc1ccccc1)C(=O)N1CCC[C@H]1C(=O)O)C(C)C (H-[Nle]PL[2Thi]SRVPFP-OH) | 664 nM
CCCC[C@H](N)C(=O)N1CCC[C@H]1C(=O)N[C@@H](CC(C)C)C(=O)N[C@@H](Cc1cnc[nH]1)C(=O)N[C@@H](CO)C(=O)N[C@@H](CCCNC(=N)N)C(=O)N[C@H](C(=O)N1CCC[C@H]1C(=O)N[C@@H](Cc1ccccc1)C(=O)N[C@@H](C)C(=O)O)C(C)C (H-[Nle]PLHSRVPFA-OH) | 57 nM
CCCC[C@H](N)C(=O)N1CCC[C@H]1C(=O)N[C@@H](CC(C)C)C(=O)N[C@@H](Cc1cnc[nH]1)C(=O)N[C@@H](CO)C(=O)N[C@@H](CCCNC(=N)N)C(=O)N[C@H](C(=O)N1CCC[C@H]1C(=O)N[C@@H](Cc1ccc(OCc2ccccc2)cc1)C(=O)N1CCC[C@H]1C(=O)O)C(C)C (H-[Nle]PLHSRVPY(Bn)P-OH) | > 10000 nM
CCCC[C@H](N)C(=O)N1CCC[C@H]1C(=O)N[C@@H](CC(C)C)C(=O)N[C@@H](Cc1cnc[nH]1)C(=O)N[C@@H](CO)C(=O)N[C@@H](CCCNC(=N)N)C(=O)N[C@H](C(=O)N1CCC[C@H]1C(=O)N[C@@H](Cc1ccccc1)C(=O)N1C[C@H](OCc2ccccc2)C[C@H]1C(=O)O)C(C)C | 38 nM
CCCC[C@H](N)C(=O)N1CCC[C@H]1C(=O)N[C@@H](CC(C)C)C(=O)N[C@@H](Cc1cnc[nH]1)C(=O)N[C@@H](CO)C(=O)N[C@@H](CCCNC(=N)N)C(=O)N[C@H](C(=O)NC(C)(C)C(=O)N[C@@H](Cc1ccccc1)C(=O)O)C(C)C (H-[Nle]PLHSRV[Aib]F-OH) | > 10000 nM
CCCC[C@H](N)C(=O)N1CCC[C@H]1C(=O)N[C@@H](CC(C)C)C(=O)N[C@@H](Cc1cnc[nH]1)C(=O)N[C@@H](CO)C(=O)N[C@@H](CCCNC(=N)N)C(=O)N[C@@H](CC1CCCCC1)C(=O)N1CCC[C@H]1C(=O)N[C@@H](Cc1ccccc1)C(=O)N1CCC[C@H]1C(=O)O (H-[Nle]PLHSR[Cha]PFP-OH) | 152 nM
CCCC[C@H](N)C(=O)N1CCC[C@H]1C(=O)N[C@H](C(=O)N[C@@H](Cc1cnc[nH]1)C(=O)N[C@@H](CO)C(=O)N[C@@H](CCCNC(=N)N)C(=O)N[C@H](C(=O)N1CCC[C@H]1C(=O)N[C@@H](Cc1ccccc1)C(=O)N1CCC[C@H]1C(=O)O)C(C)C)C(C)C (H-[Nle]PVHSRVPFP-OH) | 54 nM
CCCC[C@H](N)C(=O)N1CCC[C@H]1C(=O)N[C@@H](CC(C)C)C(=O)N[C@@H](Cc1cnc[nH]1)C(=O)N[C@@H](CO)C(=O)N[C@@H](CCCNC(=N)N)C(=O)N[C@H](C(=O)N1CCC[C@H]1C(=O)N[C@@H](Cc1ccccc1)C(=O)N1CCC[C@@]1(Cc1ccccc1)C(=O)O)C(C)C (H-[Nle]PLHSRVPF[X1]-OH) | 916 nM
